Experimental data reported in ChEMBL document CHEMBL5528038, “Discovery of 2,3-Diaminoindole Derivatives as a Novel Class of NOD Antagonists” (J Med Chem, 2024).

Columns and labels:
in vitro [1] = conditions: human, HEK-Blue hNOD2 cells
in vitro [2] = conditions: human, HEK-Blue hNOD1 cells
[3] = biological target: T1, Nucleotide-binding oligomerization domain-containing protein 1 (Homo sapiens, UniProt Q9Y239)
T1 sequence (Q9Y239 whole entry): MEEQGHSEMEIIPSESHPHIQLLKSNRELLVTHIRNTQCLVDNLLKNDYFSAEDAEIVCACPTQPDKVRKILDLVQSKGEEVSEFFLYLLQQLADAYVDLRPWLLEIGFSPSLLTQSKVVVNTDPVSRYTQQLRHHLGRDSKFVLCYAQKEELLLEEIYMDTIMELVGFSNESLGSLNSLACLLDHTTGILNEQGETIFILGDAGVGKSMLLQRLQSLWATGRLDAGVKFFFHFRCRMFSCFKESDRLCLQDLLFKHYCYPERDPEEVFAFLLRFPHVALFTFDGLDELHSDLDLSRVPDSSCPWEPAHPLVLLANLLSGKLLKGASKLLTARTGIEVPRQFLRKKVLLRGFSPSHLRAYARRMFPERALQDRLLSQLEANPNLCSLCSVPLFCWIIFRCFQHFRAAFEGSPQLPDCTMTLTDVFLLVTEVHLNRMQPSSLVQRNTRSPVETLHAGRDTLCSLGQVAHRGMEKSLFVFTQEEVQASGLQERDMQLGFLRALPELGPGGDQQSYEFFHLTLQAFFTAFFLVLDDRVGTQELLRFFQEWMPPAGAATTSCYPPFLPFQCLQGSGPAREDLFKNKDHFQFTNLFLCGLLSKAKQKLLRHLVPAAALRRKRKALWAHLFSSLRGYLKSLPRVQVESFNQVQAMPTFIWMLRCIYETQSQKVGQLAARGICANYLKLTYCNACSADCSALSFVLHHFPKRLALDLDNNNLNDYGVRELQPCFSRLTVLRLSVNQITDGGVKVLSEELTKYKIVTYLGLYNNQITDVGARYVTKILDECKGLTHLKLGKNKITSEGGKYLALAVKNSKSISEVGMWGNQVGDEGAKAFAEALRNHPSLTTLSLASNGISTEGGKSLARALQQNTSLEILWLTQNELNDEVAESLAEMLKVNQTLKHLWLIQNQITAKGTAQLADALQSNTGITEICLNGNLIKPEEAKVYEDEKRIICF
Description: Antagonist activity at human NOD1 expressed in HEK-Blue cells coexpressing NF-kappaB-inducible SEAP reporter gene assessed as inhibition of C12-iE-DAP-induced NF-kappaB transcriptional activity by measuring decrease in SEAP activity preincubated for 1 hr followed by C12-iE-DAP addition and measured after 18 hrs by spectrophotometric analysis

[4] = biological target: Nucleotide-binding oligomerization domain-containing protein 2 (Homo sapiens, UniProt Q9HC29)
Sequence of Nucleotide-binding oligomerization domain-containing protein 2 (Q9HC29 whole entry, the tested form may be a part): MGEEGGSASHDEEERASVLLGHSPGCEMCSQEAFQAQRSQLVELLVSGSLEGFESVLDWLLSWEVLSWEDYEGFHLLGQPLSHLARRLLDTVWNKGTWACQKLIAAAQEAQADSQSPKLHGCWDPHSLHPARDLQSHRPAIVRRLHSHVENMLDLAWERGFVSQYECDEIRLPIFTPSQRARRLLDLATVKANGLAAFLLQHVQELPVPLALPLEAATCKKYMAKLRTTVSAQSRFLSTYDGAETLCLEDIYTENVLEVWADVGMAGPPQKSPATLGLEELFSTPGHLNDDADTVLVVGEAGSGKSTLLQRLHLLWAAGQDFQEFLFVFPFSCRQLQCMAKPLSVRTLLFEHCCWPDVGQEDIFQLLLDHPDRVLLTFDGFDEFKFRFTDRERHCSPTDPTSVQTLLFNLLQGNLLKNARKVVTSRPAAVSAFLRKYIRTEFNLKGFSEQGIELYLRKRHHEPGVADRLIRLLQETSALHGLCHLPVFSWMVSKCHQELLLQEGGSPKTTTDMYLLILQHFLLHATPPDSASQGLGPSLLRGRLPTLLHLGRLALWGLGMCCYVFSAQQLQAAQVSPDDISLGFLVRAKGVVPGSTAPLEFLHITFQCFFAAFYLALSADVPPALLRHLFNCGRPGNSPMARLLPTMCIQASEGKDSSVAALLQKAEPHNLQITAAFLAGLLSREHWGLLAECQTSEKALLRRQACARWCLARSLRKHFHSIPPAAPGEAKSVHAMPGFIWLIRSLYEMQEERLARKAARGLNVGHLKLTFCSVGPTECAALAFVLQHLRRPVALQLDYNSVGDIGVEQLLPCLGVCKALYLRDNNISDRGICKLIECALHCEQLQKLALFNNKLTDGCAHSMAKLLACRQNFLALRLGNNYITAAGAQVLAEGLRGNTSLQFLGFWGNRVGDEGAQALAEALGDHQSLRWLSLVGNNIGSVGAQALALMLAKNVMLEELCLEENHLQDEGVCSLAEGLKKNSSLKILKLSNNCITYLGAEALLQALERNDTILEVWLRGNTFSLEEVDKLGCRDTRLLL
Description: Antagonist activity at human NOD2 (unknown origin)

IC50 [3] [µM]	IC50 [4] [µM]	Structure (SMILES)	viability at 18 h, 25 µM (in vitro [1]) [%]	viability at 18 h, 25 µM (in vitro [2]) [%]
–	–	CCN(CC)c1c(NC(C)(C)C)n(S(=O)(=O)c2ccc(C)cc2)c2cccc(C)c12	≥ 80	≥ 80
–	–	COC(=O)CNc1c(N2CCOCC2)c2ccccc2n1S(=O)(=O)c1ccc(C)cc1	≥ 80	≥ 80
18.5	–	Cc1ccc(S(=O)(=O)n2c(NC3CCCCC3)c(N3CCN(C)CC3)c3ccccc32)cc1	≥ 80	≥ 80
20.7	–	Cc1ccc(S(=O)(=O)n2c(NCc3ccccc3)c(N3CCN(C)CC3)c3cc4ccccc4cc32)cc1	≥ 80	≥ 80
–	–	O=[N+]([O-])c1ccc(S(=O)(=O)n2c(NCc3ccccc3)c(N3CCOCC3)c3ccccc32)cc1	≥ 80	≥ 80
–	–	Cc1ccc(S(=O)(=O)n2c(NC3CCCCC3)c(N3CCN(C)CC3)c3cc4ccccc4cc32)cc1	≥ 80	≥ 80
–	–	Cc1ccc(S(=O)(=O)n2c(NC3CC3)c(N3CCOCC3)c3cc(Cl)ccc32)cc1	≥ 80	≥ 80
–	–	Cc1ccc(S(=O)(=O)n2c(NCc3ccccc3)c(N3CCOCC3)c3ccccc32)cc1	≥ 80	≥ 80
–	–	CCN(CC)c1c(NC(C)(C)C)n(S(=O)(=O)c2ccc(C)cc2)c2ccccc12	≥ 80	≥ 80
–	–	Cc1ccc(S(=O)(=O)n2c(NC(C)(C)C)c(N3CCOCC3)c3ccccc32)cc1	≥ 80	≥ 80
–	–	Cc1ccc(S(=O)(=O)n2c(NCc3ccccc3)c(N3CCN(C)CC3)c3ccccc32)cc1	≥ 80	≥ 80
–	–	CC(C)(C)Nc1c(N2CCOCC2)c2ccccc2n1S(=O)(=O)c1ccc([N+](=O)[O-])cc1	≥ 80	≥ 80
–	–	C#CCN(C)c1c(Nc2ccc3ccccc3c2)n(S(=O)(=O)c2ccc(C)cc2)c2cc(Cl)ccc12	≥ 80	≥ 80
–	–	Cc1ccc(S(=O)(=O)n2c(NC(C)(C)C)c(N3CCN(C)CC3)c3cc4ccccc4cc32)cc1	≥ 80	≥ 80
26.1	–	CCCCCNc1c(N2CCOCC2)c2ccccc2n1S(=O)(=O)c1ccc([N+](=O)[O-])cc1	≥ 80	≥ 80
–	–	CCCCCNc1c(N2CCOCC2)c2ccccc2n1S(=O)(=O)c1ccc(C)cc1	≥ 80	≥ 80
–	–	Cc1ccc(S(=O)(=O)n2c(NC(C)(C)C)c(N3CCOCC3)c3cc(Cl)ccc32)cc1	≥ 80	≥ 80
–	–	COc1ccc(S(=O)(=O)n2c(NC(C)(C)C)c(N3CCOCC3)c3ccccc32)cc1	≥ 80	≥ 80
–	–	Cc1ccc(S(=O)(=O)n2c(NC(C)(C)C)c(N3CCCCC3)c3ccccc32)cc1	≥ 80	≥ 80
–	–	CCCCCNc1c(N(CC)CC)c2ccccc2n1S(=O)(=O)c1ccc(C)cc1	≥ 80	≥ 80
–	> 20	CCCCCn1c(SCCc2ccccc2)nc2[nH]c(=O)[nH]c(=O)c21	–	–
